Data taken from the OligoGym collection.
Values joined by “and” are separate entries in the source; they are usually repeats but may differ in a detail not shown here. Equal values may be shown once. These antisense oligonucleotides have a phosphorothioate backbone; sugars and methylation of C are not fully specified.

What follows are sequences tested against BIRC3. Settings: ASO.
Note: test concentration or dose not given here.

CTAACTCAAAGGAGGAAA and TAAAACCCTTCACAGAAG cannot be ordered by remaining target (mRNA or protein) (fraction of control): no less than 1 for the first, no less than 1 for the second.

Going from GGTCAACTTCTCCAGGCT to CACAAGACCTAACTCAAA, the remaining target (mRNA or protein) (fraction of control) rises from 0.35 to 0.73.

Compared with TCATCTCCTGGGCTGTCT, CTGAAATTTTGATTGAAT is higher in remaining target (mRNA or protein) (fraction of control): 0.6 for the first, 0.86 for the second.

First: AACATCATGTTCTTGTTC
Second: AGCAGGAAAAGTGGAATA
The remaining target (mRNA or protein) (fraction of control) of the first is lower: 0.91 for the first, no less than 1 for the second.

Going from AGCAAGCCACTCTGTCTC to TTTGACATCATCACTGTT, the remaining target (mRNA or protein) (fraction of control) rises from 0.5 to no less than 1.

TTAAGGAAGAAATACACA and GCATGGCTTTGCTTTTAT cannot be ordered by remaining target (mRNA or protein) (fraction of control): no less than 1 for the first, no less than 1 for the second.

First: AGAGCCACGGAAATATCC
Second: ACTGAAGACATTTTGAAT
The remaining target (mRNA or protein) (fraction of control) of the first is higher: 0.91 for the first, 0.38 for the second.

Going from TGTAGTGCTACCTCTTTT to CAAACGTGTTGGCGCTTT, the remaining target (mRNA or protein) (fraction of control) rises from 0.31 to 0.65.

Compared with CATGTCCCTAAAATGTCA, TTCAGTGGCATTCAATCA is lower in remaining target (mRNA or protein) (fraction of control): no less than 1 for the first, 0.77 for the second.

CCTTCGATGTATAGGACA and TTAACGGAATTTAGACTC cannot be ordered by remaining target (mRNA or protein) (fraction of control): no less than 1 for the first, no less than 1 for the second.

First: GAAACCAAATTAGGATAA
Second: TGGCTTGAACTTGACGGA
The remaining target (mRNA or protein) (fraction of control) of the first is lower: 0.88 for the first, no less than 1 for the second.

Compared with TGAAGTGTCTTGAAGCTG, AAGAAGGAGCACAATCTT is lower in remaining target (mRNA or protein) (fraction of control): no less than 1 for the first, 0.3 for the second.

First: GCAGCATTAATCACAGGA
Second: GCTCTGCTGTCAAGTGTT
The remaining target (mRNA or protein) (fraction of control) of the first is higher: no less than 1 for the first, 0.43 for the second.

Going from AAATCTTGATTTGCTCTG to ATATAACACAGCTTCAGC, the remaining target (mRNA or protein) (fraction of control) rises from 0.93 to no less than 1.

Compared with CTTAGAGGTACGTAAAAT, TACAATTTCAATAATGCT is lower in remaining target (mRNA or protein) (fraction of control): 0.71 for the first, 0.62 for the second.

Compared with GCACTTTTATTTCTTAGA, TTTCTCTCTCCTCTTCCC is higher in remaining target (mRNA or protein) (fraction of control): 0.3 for the first, 0.9 for the second.

Going from CTTCTCCAGGCTACTAGA to TGTGTGACTCATGAAGCT, the remaining target (mRNA or protein) (fraction of control) rises from 0.5 to 0.77.

ATTTGTTACTGAAGAAGG and ATTTTAATTAGAAGCACT cannot be ordered by remaining target (mRNA or protein) (fraction of control): no less than 1 for the first, no less than 1 for the second.

Going from AATTGTTCTTCCACTGGT to GGGTCTCAGTATGCTGCC, the remaining target (mRNA or protein) (fraction of control) falls from no less than 1 to 0.79.

First: GTAAGTAATCTGGCATTT
Second: ACCATATTTCACTGATTC
The remaining target (mRNA or protein) (fraction of control) of the first is higher: no less than 1 for the first, 0.3 for the second.

The sequences below were run against MAP2K4. Settings: ASO.

Compared with AATCGACATACATGGGAGAG, TATTTTAATGTTCACCTCTT is higher in remaining target (mRNA or protein) (fraction of control): 0.55 for the first, no less than 1 for the second.

Compared with GATTTTGCCTAAAATTTCTT, ACCACTCACAGTGCTGCTTC is lower in remaining target (mRNA or protein) (fraction of control): no less than 1 for the first, 0.68 for the second.

First: GATATCAATCGACATACATG
Second: ATGCTGCTGACGGCCGGGTG
The remaining target (mRNA or protein) (fraction of control) of the first is higher: 0.83 for the first, 0.76 for the second.

Going from GTCTGATGTAGCAGCGATAT to AGACCTGGACCAGTGATGGC, the remaining target (mRNA or protein) (fraction of control) rises from 0.53 to 0.6.

Going from GCTCGGGCTCGGAGCCGCCA to GAGCCGCCGCCGCCGCTCGG, the remaining target (mRNA or protein) (fraction of control) rises from 0.47 to no less than 1.

Going from CAGTCTCTCTATGTGTGGGT to TTTGTTTTAATAAAGATACA, the remaining target (mRNA or protein) (fraction of control) rises from 0.69 to 0.88.

Going from ATGGGAGAGCTGGGAGTAGC to GTGAAATCCCAGTGTTGTTC, the remaining target (mRNA or protein) (fraction of control) falls from no less than 1 to 0.91.

First: TAGAAATGAATTTAAGATGT
Second: GCTGTGCAAGCTCTTCTCAC
The remaining target (mRNA or protein) (fraction of control) of the first is higher: no less than 1 for the first, 0.63 for the second.

First: ATGGAGGATGATGGCTTGCT
Second: TAGAGTCTGATGTAGCAGCG
The remaining target (mRNA or protein) (fraction of control) of the first is higher: 0.83 for the first, 0.79 for the second.

Going from GGAGACACAGCAATACGTGC to ATATTTCCACTTCTGTCCAG, the remaining target (mRNA or protein) (fraction of control) rises from 0.61 to 0.67.

First: GAAATATATAGCTGCTACAA
Second: CAACTTCAGTGCTTTGCGTT
The remaining target (mRNA or protein) (fraction of control) of the first is higher: no less than 1 for the first, 0.42 for the second.

GAGTAAACCTTGCTGTAGAT was tested, and the remaining target (mRNA or protein) (fraction of control) was 0.73.

The sequences below were run against TNF. Settings: ASO.

Compared with AGTGAGTTCCGAAAGCCCATT, GAAGCCTCCCCGCTCTTTGCC is lower in remaining target (mRNA or protein) (fraction of control): 0.94 for the first, 0.25 for the second.

Compared with TCCACTCCCCCGATCCACTCA, GTTTCCCCTCCATCTCCCTCC is higher in remaining target (mRNA or protein) (fraction of control): 0.11 for the first, 0.26 for the second.

First: CCTCTTTCCCTTACCCTCCTG
Second: CAGTCACGGCTCCCGTGGG
The remaining target (mRNA or protein) (fraction of control) of the first is lower: 0.1 for the first, 0.91 for the second.

First: GGTCTCCCTCCCCAACTCTCC
Second: TTGCTGTTCTCCCTCCTGGCT
The remaining target (mRNA or protein) (fraction of control) of the first is higher: 0.18 for the first, 0.15 for the second.

Going from CTTGAGCTCAGCTCCCTCAGG to CCTATTCCCTTTCCTCCCAAA, the remaining target (mRNA or protein) (fraction of control) falls from 0.45 to 0.14.

Compared with CCGTGCTCATGGTGTCCTTTC, GCTGGAAGACTCCTCCCAGGT is lower in remaining target (mRNA or protein) (fraction of control): 0.51 for the first, 0.35 for the second.

Compared with AAAGCTTTAAGTCCCCCGCCC, GGTTCCGTAAGGAAGGCTGG is higher in remaining target (mRNA or protein) (fraction of control): 0.25 for the first, 0.94 for the second.

TTCCCAACGCTGGGTCCTCCA and AAACTTACCTACGACGTGGGC cannot be ordered by remaining target (mRNA or protein) (fraction of control): no less than 1 for the first, no less than 1 for the second.

First: ACACTTACTGAGTGTGAGGGT
Second: CCCTTAGGTTTCCCAGCAAGC
The remaining target (mRNA or protein) (fraction of control) of the first is higher: no less than 1 for the first, 0.38 for the second.

First: TTCTTGCCCTCCCTCCCTACT
Second: GGGATAGCTGGTAGTTTAG
The remaining target (mRNA or protein) (fraction of control) of the first is lower: 0.12 for the first, no less than 1 for the second.

Going from AGAGCCACAATTCCCTTTCTA to GCCTGAAGACAGCTTCCCAAC, the remaining target (mRNA or protein) (fraction of control) rises from 0.2 to 0.24.

First: CATTTCTTTTCCAAGCGAAC
Second: GGGAAATTCCCAGGACCAGGG
The remaining target (mRNA or protein) (fraction of control) of the first is lower: 0.94 for the first, no less than 1 for the second.

Going from GCTGAGCAGGTCCCCCTTCTC to AGGCTCCTGTTTCCGGGGAGA, the remaining target (mRNA or protein) (fraction of control) rises from 0.8 to no less than 1.

AGGGAAGGAAGGAAGGAAGGG and GTCGCCTCACAGAGCAATGAC cannot be ordered by remaining target (mRNA or protein) (fraction of control): no less than 1 for the first, no less than 1 for the second.

First: GGCACTCACCTCCTCCTTGTT
Second: CTGGTCCCTTGGTGTCCTCGC
The remaining target (mRNA or protein) (fraction of control) of the first is higher: 0.94 for the first, 0.69 for the second.

ATTTGGAATTCCCAGAGTGGG and TAGACGATAAAGGGGTCAGAG cannot be ordered by remaining target (mRNA or protein) (fraction of control): no less than 1 for the first, no less than 1 for the second.

First: GATCATGCTTTCCGTGCTCAT
Second: CAGTCTGGGAAGCTCTGAGGG
The remaining target (mRNA or protein) (fraction of control) of the first is lower: 0.94 for the first, no less than 1 for the second.

Going from AATAATAAATAATAAATAAAT to GCAGCCTTGTCCCTTGAAGAG, the remaining target (mRNA or protein) (fraction of control) falls from no less than 1 to 0.73.

First: ACTTTCCCAGCAGGTATTTGG
Second: CTGGTCTTTCCACGTCCCATT
The remaining target (mRNA or protein) (fraction of control) of the first is higher: 0.88 for the first, 0.17 for the second.

Going from CCTCGCTGAGTTCTGCCGGCT to CTTCTTCCCTGTTCCCCTGGC, the remaining target (mRNA or protein) (fraction of control) falls from 0.99 to 0.2.

TATCTCCCTCGTCTCCCATCT gave a remaining target (mRNA or protein) (fraction of control) of 0.27.

In the case of TGATCCACTCCCCCCTCCACT, the remaining target (mRNA or protein) (fraction of control) is reported as 0.06 and 0.1.

What follows are sequences tested against VCAM1. Settings: ASO.

Going from CCTCCAGTTCTCTC to ACGACCATCTTCCC, the remaining target (mRNA or protein) (fraction of control) rises from 0.32 to 0.51.

Compared with GCCAGTGAGGCCCG, TTACCATTGACATAAAGTGTT is higher in remaining target (mRNA or protein) (fraction of control): 0.35 for the first, 0.52 for the second.

Going from ACCTGTGTGTGCCTGGGAGGG to GCCTGGGAGGGTATTCAGCTC, the remaining target (mRNA or protein) (fraction of control) rises from 0.26 to 0.3.

Going from CCTGGGAGGGTATTC to GGTATTCAGCTCCTGAAG, the remaining target (mRNA or protein) (fraction of control) rises from 0.39 to 0.69.

Going from CCCAGGCATTTTAAG to GGCCACATTGGGAAAGTTGC, the remaining target (mRNA or protein) (fraction of control) falls from 0.78 to 0.29.

Compared with CCACCACTCATCTCG, CGATGCAGATACCGCGGAGT is higher in remaining target (mRNA or protein) (fraction of control): 0.26 for the first, 0.37 for the second.

Compared with AACATCTCCGTACCATGCCA, CCCTTATTTGTGTCCC is higher in remaining target (mRNA or protein) (fraction of control): 0.25 for the first, 0.37 for the second.

Going from TGAACATATCAAGCATTAGC to CGACCATCTTCCCAGGCATTT, the remaining target (mRNA or protein) (fraction of control) falls from 0.53 to 0.2.

Going from CCCGGCATCTTTACAAAACC to CTTGAACAATTAATTCCACCT, the remaining target (mRNA or protein) (fraction of control) falls from 0.45 to 0.37.

First: CCTGAAGCCAGTGAGGCCCG
Second: CCTGTGTGTGCCTGGGAGGG
The remaining target (mRNA or protein) (fraction of control) of the first is lower: 0.42 for the first, 0.88 for the second.

First: CAGATCAGGGAACTCCTC
Second: GGCATTTTAAGTTGCTGTCG
The remaining target (mRNA or protein) (fraction of control) of the first is higher: 0.55 for the first, 0.34 for the second.

Going from CTTTGACTTCTTGCTCACAGC to AACTCCTCCAGTTCTCTCATC, the remaining target (mRNA or protein) (fraction of control) rises from 0.07 to 0.12.

Compared with CCCAGGCATTTTAAGTTGCTG, CGTGATGAAGAAAATAGTGGTT is higher in remaining target (mRNA or protein) (fraction of control): 0.33 for the first, 0.49 for the second.

Compared with CTCTCATCTTGATGGC, CATCTTCCCAGGCAT is lower in remaining target (mRNA or protein) (fraction of control): 0.55 for the first, 0.45 for the second.

Compared with CAGCCTGCCTTACTGTGGGC, GTCTTTGTTGTTTTCTCTTCC is lower in remaining target (mRNA or protein) (fraction of control): 0.67 for the first, 0.41 for the second.

Going from CCCATTCACGAGGCCACC to CGAGGCCACCACTC, the remaining target (mRNA or protein) (fraction of control) rises from 0.11 to 0.16.
